Test results published in patent US20200024278A1, “COMPOSITION COMPRISING ANTIBIOTIC COMPOUND AND AN HETEROCYCLIC COMPOUND AND THEIR USE IN PREVENTING OR TREATING BACTERIAL INFECTIONS” (MUTABILIS, priority 2016, published 2020).
Like-named read-outs stand apart in the source and are kept apart here. Blank lines part the entries; values can stand above or below the compound they belong to.

What was measured:
Test in all cases: MIC, broth microdilution (CLSI), substance alone or ATB combined with compound at 4 or 8 μg/mL
[1] = test system: SPN 49619; type: cell-based, S. pneumoniae; details: SPN 49619; for MIC: Streptococcus pneumoniae
Description: (§1) Compounds of the present invention were assessed against genotyped bacterial strains alone or in combination with an antibacterial. In the assays, MICs of said compounds or combination of antibiotics with fixed concentrations of said compounds (4 or 8 μg/mL) were determined by the broth microdilution method according to the Clinical Laboratory Standards Institute (CLSI-M7-A7). Briefly, compounds alone according to the invention were prepared in DMSO and spotted (2 μL each) on sterile polystyrene plates (Corning, 3788). Combinations of compounds and antibiotics dilutions were prepared in DMSO and spotted (1 μL each) on sterile polystyrene plates (Corning, 3788). Log phase bacterial suspensions were adjusted to a final density of 5·10^5 CFU/mL in cation-adjusted Mueller-Hinton broth (ca-MHB; Becton-Dickinson and Company) and added to each well (98 μL). Assays including Fosfomycin were supplemented with 25 μg/ml of Glucose-6-phosphate. Microplates were incubated for 16-20 h at 35° C. in ambient air. The MIC of the compounds was defined as the lowest concentration of said compounds that prevented bacterial growth as read by visual inspection. The MIC of ATB at each compound concentration was defined as the lowest concentration of ATB that prevented bacterial growth as read by visual inspection.

[2] = test system: SAU 29213; type: cell-based, S. aureus; details: SAU 29213
Description: as §1

[3] = test system: PAE UFR48; type: cell-based, P. aeruginosa; details: PAE UFR48
Description: as §1

[4] = test system: PAE 105250; type: cell-based, P. aeruginosa; details: PAE 105250; for MIC: Pseudomonas aeruginosa
Description: as §1

[5] = test system: PAE UFR90; type: cell-based, P. aeruginosa; details: PAE UFR90
Description: as §1

[6] = test system: ECL P99; type: cell-based, E. cloacae; details: ECL P99
Description: as §1

[7] = test system: ECO UFR39; type: cell-based, E. coli; details: ECO UFR39; with Example 13 at 8 μg/ml
Description: as §1

[8] = test system: ECO 190317; type: cell-based, E. coli; details: ECO 190317
Description: as §1

[9] = antibiotic alone, read-out: MIC ATB alone

- MIC ATB alone ([1]; CLI alone): 0.125 µg/mL
- MIC ATB alone ([1]; antibiotic alone): 0.125 µg/mL
- MIC ATB combined with Example 1 @8 μg/ml [1]: 0.063 µg/mL
- MIC ATB combined with Example 9 @4 μg/ml ([1]; with Example 9 @4 μg/ml): 0.0039 µg/mL
Compound: CCC[C@@H]1C[C@@H](C(=O)N[C@@H]([C@H]2O[C@H](SC)[C@H](O)[C@@H](O)[C@H]2O)[C@H](C)Cl)N(C)C1 [CLI]

- MIC ATB alone ([1]; RIF alone): 0.031 µg/mL
- MIC ATB alone ([1]; antibiotic alone): 0.031 µg/mL
- MIC ATB combined with Example 1 @8 μg/ml [1]: 0.063 µg/mL
- MIC ATB combined with Example 9 @4 μg/ml ([1]; with Example 9 @4 μg/ml): 0.00024 µg/mL
- MIC ATB alone ([2]; RIF alone): 0.0078 µg/mL
- MIC ATB alone ([2]; antibiotic alone): 0.0078 µg/mL
- MIC ATB combined with Example 1 @8 μg/ml ([2]; with Example 1 @8 μg/ml): 0.0078 µg/mL
- MIC ATB combined with Example 9 @4 μg/ml [2]: 0.002 µg/mL
Compound: CO[C@H]1/C=C/O[C@@]2(C)Oc3c(C)c(O)c4c(O)c(c(/C=N/N5CCN(C)CC5)c(O)c4c3C2=O)NC(=O)/C(C)=C\C=C\[C@H](C)[C@H](O)[C@@H](C)[C@@H](O)[C@@H](C)[C@H](OC(C)=O)[C@@H]1C [RIF]

- MIC ATB combined with Example 1 @8 μg/ml ([3]; with Example 1 @8 μg/ml): <0.031 µg/mL
- MIC ATB combined with Example 1 @8 μg/ml ([3]; with Example 1 at 8 μg/ml): <0.031 µg/mL
- MIC ATB combined with Example 7 @8 μgml ([3]; with Example 7 at 8 μg/ml): >32 µg/mL
- MIC ATB combined with Example 11 @8 μg/ml ([3]; with Example 11 at 8 μg/ml): >32 µg/mL
- MIC ATB combined with Example 12 @8 μg/ml ([3]; with Example 12 at 8 μg/ml): >32 µg/mL
- MIC ATB combined with Example 15 @4 μgml ([3]; with Example 15 at 4 μg/ml): >32 µg/mL
- MIC ATB combined with Example 16 @4 μg/ml ([3]; with Example 16 at 4 μg/ml): >32 µg/mL
- MIC ATB combined with Example 1 @8 μg/ml ([4]; with Example 1 @8 μg/ml): <0.031 µg/mL
- MIC ATB combined with Example 1 @8 μg/ml ([4]; with Example 1 at 8 μg/ml): <0.031 µg/mL
- MIC ATB combined with Example 11 @8 μg/ml ([4]; with Example 11 at 8 μg/ml): 32 µg/mL
- MIC ATB combined with Example 12 @8 μg/ml ([4]; with Example 12 at 8 μg/ml): >32 µg/mL
- MIC ATB combined with Example 14 @8 μg/ml ([4]; with Example 14 at 8 μg/ml): >32 µg/mL
- MIC ATB combined with Example 15 @4 μgml ([4]; with Example 15 at 4 μg/ml): 32 µg/mL
- MIC ATB combined with Example 16 @4 μg/ml ([4]; with Example 16 at 4 μg/ml): >32 µg/mL
- MIC ATB combined with Example 1 @8 μg/ml ([5]; with Example 1 @8 μg/ml): <0.031 µg/mL
- MIC ATB combined with Example 1 @8 μg/ml ([5]; with Example 1 at 8 μg/ml): <0.031 µg/mL
- MIC ATB combined with Example 7 @8 μgml ([5]; with Example 7 at 8 μg/ml): >32 µg/mL
- MIC ATB combined with Example 11 @8 μg/ml ([5]; with Example 11 at 8 μg/ml): 32 µg/mL
- MIC ATB combined with Example 12 @8 μg/ml ([5]; with Example 12 at 8 μg/ml): >32 µg/mL
- MIC ATB combined with Example 14 @8 μg/ml ([5]; with Example 14 at 8 μg/ml): >32 µg/mL
- MIC ATB combined with Example 16 @4 μg/ml ([5]; with Example 16 at 4 μg/ml): >32 µg/mL
- MIC ATB combined with Example 7 @8 μgml ([1]; with Example 7 at 8 μg/ml): 0.063 µg/mL
- MIC ATB combined with Example 9 @4 μg/ml ([1]; with Example 9 @4 μg/ml): <=0.031 μg/mL
- MIC ATB combined with Example 9 @4 μg/ml ([1]; with Example 9 at 4 μg/ml): <=0.031 μg/mL
- MIC ATB combined with Example 11 @8 μg/ml ([1]; with Example 11 at 8 μg/ml): <=0.031 μg/mL
- MIC ATB combined with Example 13 @8 μg/ml ([1]; with Example 13 at 8 μg/ml): <=0.031 μg/mL
- MIC ATB combined with Example 15 @4 μgml ([1]; with Example 15 at 4 μg/ml): <=0.031 μg/mL
- MIC ATB combined with Example 1 @8 μg/ml ([6]; with Example 1 @8 μg/ml): <0.031 µg/mL
- MIC ATB combined with Example 1 @8 μg/ml ([6]; with Example 1 at 8 μg/ml): <0.031 µg/mL
- MIC ATB combined with Example 7 @8 μgml ([6]; with Example 7 at 8 μg/ml): 2 µg/mL
- MIC ATB combined with Example 13 @8 μg/ml ([6]; with Example 13 at 8 μg/ml): 1 µg/mL
- MIC ATB combined with Example 13 @8 μg/ml [7]: <0.031 µg/mL
- MIC ATB combined with Example 1 @8 μg/ml ([8]; with Example 1 @8 μg/ml): <0.031 µg/mL
- MIC ATB combined with Example 1 @8 μg/ml ([8]; with Example 1 at 8 μg/ml): <0.031 µg/mL
- MIC ATB combined with Example 13 @8 μg/ml ([8]; with Example 13 at 8 μg/ml): <0.031 µg/mL
- MIC ATB alone ([2]; antibiotic alone): 8 µg/mL
- MIC ATB combined with Example 1 @8 μg/ml ([2]; with Example 1 @8 μg/ml): 4 µg/mL
- MIC ATB combined with Example 1 @8 μg/ml ([2]; with Example 1 at 8 μg/ml): 4 µg/mL
- MIC ATB combined with Example 7 @8 μgml ([2]; with Example 7 at 8 μg/ml): 2 µg/mL
- MIC ATB combined with Example 11 @8 μg/ml ([2]; with Example 11 at 8 μg/ml): <=0.031 μg/mL
- MIC ATB combined with Example 13 @8 μg/ml ([2]; with Example 13 at 8 μg/ml): 4 µg/mL
Compound: CO/N=C(\C(=O)N[C@@H]1C(=O)N2C(C(=O)O)=C(CSc3nc(=O)c(O)nn3C)CS[C@H]12)c1csc(N)n1 [CTR]

Compound: C[C@H]1[C@H](NC(=O)/C(=N\OC(C)(C)C(=O)O)c2csc(N)n2)C(=O)N1S(=O)(=O)O [ATM, Aztreonam, reference compound]
- MIC [4, 9]: 8 µg/mL
- MIC ([4]; substance alone, read-out: MIC): 8 µg/mL
- MIC [1, 9]: > 64 µg/mL
- MIC ([1]; substance alone, read-out: MIC): > 64 µg/mL
- MIC ([8]; Escherichia coli, antibiotic alone, read-out: MIC ATB alone): 128 µg/mL

- MIC ATB alone ([1]; LZD alone): 1 µg/mL
- MIC ATB alone ([1]; antibiotic alone): 1 µg/mL
- MIC ATB combined with Example 1 @8 μg/ml [1]: 1 µg/mL
- MIC ATB combined with Example 9 @4 μg/ml ([1]; with Example 9 @4 μg/ml): <=0.0078 μg/mL
- MIC ATB alone ([2]; LZD alone): 4 µg/mL
- MIC ATB alone ([2]; antibiotic alone): 4 µg/mL
- MIC ATB combined with Example 1 @8 μg/ml ([2]; with Example 1 @8 μg/ml): 2 µg/mL
- MIC ATB combined with Example 9 @4 μg/ml [2]: <0.0078 µg/mL
Compound: CC(=O)NC[C@H]1CN(c2ccc(N3CCOCC3)c(F)c2)C(=O)O1 [LZD]

- MIC ATB alone ([1]; antibiotic alone): 0.25 µg/mL
- MIC ATB combined with Example 1 @8 μg/ml [1]: 0.25 µg/mL
- MIC ATB combined with Example 9 @4 μg/ml ([1]; with Example 9 @4 μg/ml): <0.0039 µg/mL
- MIC ATB alone ([1]; VAN alone): 0.25 µg/mL
- MIC ATB alone ([2]; antibiotic alone): 1 µg/mL
- MIC ATB combined with Example 1 @8 μg/ml ([2]; with Example 1 @8 μg/ml): 1 µg/mL
- MIC ATB combined with Example 9 @4 μg/ml [2]: <0.0039 µg/mL
- MIC ATB alone ([2]; VAN alone): 1 µg/mL
Compound: CN[C@H](CC(C)C)C(=O)N[C@H]1C(=O)N[C@@H](CC(N)=O)C(=O)N[C@H]2C(=O)N[C@H]3C(=O)N[C@H](C(=O)N[C@H](C(=O)O)c4cc(O)cc(O)c4-c4cc3ccc4O)[C@H](O)c3ccc(c(Cl)c3)Oc3cc2cc(c3O[C@@H]2O[C@H](CO)[C@@H](O)[C@H](O)[C@H]2O[C@H]2C[C@](C)(N)[C@H](O)[C@H](C)O2)Oc2ccc(cc2Cl)[C@H]1O [VAN]

- MIC ATB alone ([1]; ERY alone): 0.063 µg/mL
- MIC ATB alone ([1]; antibiotic alone): 0.063 µg/mL
- MIC ATB combined with Example 1 @8 μg/ml [1]: 0.063 µg/mL
- MIC ATB combined with Example 9 @4 μg/ml ([1]; with Example 9 @4 μg/ml): <0.0020 µg/mL
- MIC ATB alone ([2]; ERY alone): 1 µg/mL
- MIC ATB alone ([2]; antibiotic alone): 1 µg/mL
- MIC ATB combined with Example 1 @8 μg/ml ([2]; with Example 1 @8 μg/ml): 0.25 µg/mL
- MIC ATB combined with Example 9 @4 μg/ml [2]: <=0.0020 μg/mL
Compound: CC[C@H]1OC(=O)[C@H](C)[C@@H](O[C@H]2C[C@@](C)(OC)[C@@H](O)[C@H](C)O2)[C@H](C)[C@@H](O[C@@H]2O[C@H](C)C[C@H](N(C)C)[C@H]2O)[C@](C)(O)C[C@@H](C)C(=O)[C@H](C)[C@@H](O)[C@]1(C)O [ERY]
